# Entries after “also recorded” stand apart in the source; their conditions may differ.
# Columns and labels:
# 231-MGMT-1 = assay: Colony formation assay, MGMT-transfected 231-MGMT-1; format: cell-based, human; conditions: for IC50: Homo sapiens, 48 h, read-out: IC50 (concentration required to decrease colony formation by 50%)
# Description: (§1) Depending on the cell line (and plating efficiency), 200-350 cells were seeded into each well of a 6-well plate. […] Thereafter, the drugs were removed, fresh growth medium was added, and the cells were kept in culture undisturbed for 12-16 days, during which time the surviving cells spawned colonies of descendants. Colonies (defined as groups of >50 cells) were visualized by staining for 4 hours with 1% methylene blue (in methanol), and then were counted.
# (§2) In the case of O6-BG treatment, cells were pretreated with 10 μM O6-BG for one hour before addition of TMZ or TMZ-POH. After 24 hours, another 10 μM O6-BG was added to the medium. Another 24 hours later, drug-laced medium was removed, and fresh medium without drugs was added. Thereafter, cells remained undisturbed until staining with methylene blue.
# MDA-MB-231 cells were co-transfected in 6-well plates with the use of Lipofectamine 2000 (Invitrogen, Carlsbad, Calif.) according to manufacturer's instructions. 2 μg pSV2MGMT (containing the human MGMT cDNA) was combined with 0.2 μg pSV2neo (containing the neomycin gene for selection of cells in G418). Both plasmids were provided by Bernd Kaina (Mainz, Germany). Individual clones of transfected cells were selected in medium containing 750 μg/mL G418 and propagated in 250 μg/mL G418. G418 was obtained as G418 disulfate salt from Sigma-Aldrich and dissolved in PBS at 75 mg/mL. Selection medium was removed from cells several days before experimental drug treatment.
# To investigate the latter, we stably transfected MGMT-negative MDA-MB-231 cells with MGMT cDNA and isolated individual clones. […] Both clones were treated with increasing concentrations of TMZ-POH and TMZ and analyzed by CFA.
# MDA-MB-468 = assay: Colony formation assay, MDA-MB-468; conditions: for IC50: Homo sapiens, MDA-MB-468, 48 h, read-out: IC50 (concentration required to decrease colony formation by 50%)
# Description: as §1, §2
# (§3) The cytotoxic potency of TMZ-POH, was analyzed by colony formation assay (CFA) in a variety of human breast cancer cell lines and compared to the cytotoxicity of TMZ. We used estrogen receptor positive cells MCF7 and T47D, the triple-negative lines MDA-MB-231, MDA-MB-468, and HCC-1937, and a brain-seeking variant of the 231 cell line, MDA-MB-231-br.
# MCF7 = assay: Colony formation assay, MCF7; conditions: for IC50: Homo sapiens, MCF7, 48 h, read-out: IC50 (concentration required to decrease colony formation by 50%)
# Description: as §1, §2, §3
# U251 human glioma cells = assay: MTT cytotoxicity assay, U251 glioma cells; conditions: U251; result in words
# Text: In vitro efficacy of the present composition can be determined using methods well known in the art. For example, the cytoxicity of the present monoterpene (or sesquiterpene) and/or the therapeutic agents may be studied by MTT [3-(4,5-dimethylthiazol-2-yl)-2,5-diphenyl tetrazolium bromide] cytotoxicity assay. MTT assay is based on the principle of uptake of MTT, a tetrazolium salt, by metabolically active cells where it is metabolized into a blue colored formazon product, which can be read spectrometrically. J. of Immunological Methods 65: 55 63, 1983. The cytoxicity of the present monoterpene (or sesquiterpene) derivative and/or the therapeutic agents may be studied by colony formation assay. Functional assays for inhibition of VEGF secretion and IL-8 secretion may be performed via ELISA. Cell cycle block by the present monoterpene (or sesquiterpene) derivative and/or the therapeutic agents may be studied by standard propidium iodide (PI) staining and flow cytometry. Invasion inhibition may be studied by Boyden chambers. In this assay a layer of reconstituted basement membrane, Matrigel, is coated onto chemotaxis filters and acts as a barrier to the migration of cells in the Boyden chambers. Only cells with invasive capacity can cross the Matrigel barrier. Other assays include, but are not limited to cell viability assays, apoptosis assays, and morphological assays.
# First cytotoxicity assays were carried out after cells were treated with dimethyl-celecoxib (DMC) alone.
# Then U87, A172 and U251 cells were treated with dimethyl celecoxib bisPOH carbamate (POH−DMC) (e.g., synthesized by the method in Example 1), and the MTT cytotoxicity assays performed (FIG. 2).
# First cytotoxicity assays were carried out after cells were treated with temozolomide (TMZ) alone, the standard alkylating agent used in the treatment of malignant gliomas.
# Then TMZ-resistant glioma cell lines U87, A172 and U251 cells were treated with TMZ-POH (e.g., synthesized by the method in Example 3).
# To compare the cytotoxicity of Rolipram POH Carbamate (POH-Rolipram) (e.g., synthesized by the method in Example 5) with rolipram, […] inducing differentiation and apoptosis in glioma cells, A172, U87, U251 and LN229 human glioma cells were treated with either POH-Rolipram or rolipram for 48 hours.
# MTT cytotoxicity assays were carried out after cells were treated with the TMZ-POH conjugate. The MTT cytotoxicity assays were carried out as described in Chen T C, et al. Green tea epigallocatechin gallate enhances therapeutic efficacy of temozolomide in orthotopic mouse glioblastoma models. Cancer Lett. 2011 Mar. 28; 302(2):100-8.
# HCC-1937 = assay: Colony formation assay, HCC-1937; format: cell-based, human; conditions: for IC50: Homo sapiens, HCC1937, 48 h, read-out: IC50 (concentration required to decrease colony formation by 50%)
# Description: as §1, §3
# [1] = low micromolar concentrations, 48 hours, in words
SMILES,IC50 (231-MGMT-1),IC50 (MDA-MB-468),IC50 (MCF7),cytotoxicity (MTT assay) (U251 human glioma cells),IC50 (HCC-1937),"Differential (−fold) (231-MGMT-1; fold increase in potency of TMZ-POH compared to TMZ, 231-MGMT-1)","Differential (−fold) (MDA-MB-468; fold increase in potency of TMZ-POH compared to TMZ, MDA-MB-468)",colony formation (CFA) (MDA-MB-468; [1]),"Differential (−fold) (MCF7; fold increase in potency of TMZ-POH compared to TMZ, MCF7)",colony formation (CFA) (MCF7; [1]),"Differential (−fold) (HCC-1937; fold increase in potency of TMZ-POH compared to TMZ, HCC-1937)",colony formation (CFA) (HCC-1937; [1])
"Cn1nnc2c(C(N)=O)ncn2c1=O [TMZ, temozolomide, reference compound]",202 µM,195 µM,513 µM,minimal cytotoxicity,186 µM,–,–,–,–,–,–,–
C=C(C)[C@@H]1CC=C(COC(=O)NC(=O)c2ncn3c(=O)n(C)nnc23)CC1 [TMZ-POH],27 µM,31 µM,33 µM,substantially higher kill rates; also recorded: demonstrated cytotoxicity,31 µM,7.5 −fold,6.3 −fold,prevented colony formation,15.5 −fold,prevented colony formation,6.0 −fold,prevented colony formation

# From US9913838B2, “Methods of treating cancer using compositions comprising perillyl alcohol derivative” (NEONC TECHNOLOGIES INC., priority 2010, dated 2018)
